Results: patent US4956171A, “Transdermal drug delivery using a dual permeation enhancer and method of performing the same” (Paco Pharmaceutical Services, Inc., priority 1989, dated 1990)
Counter-ions that a name gives are not always drawn. Like-named read-outs stand apart in the source and are kept apart here.

Tests used:
[1] = In vitro flux of drug from saturated test solutions through human cadaver skin into an infinite sink, Franz diffusion cell; assay type: in vitro ADME
Description: For the evaluation of the degree of permeation enhancement, saturated test solutions of buprenorphine HCl in methyl laurate and/or sucrose cocoate were directly applied onto the epidermis side of human cadaver skin loaded between donor and receptor compartments of a standard Franz diffusion cell. The cell was kept at 35° C. during the diffusion study. […] The sucrose cocoate used for the test is commercially available in a 48 wt. % aqueous solution under the trade name Crodesta® SL-40, through Croda, Inc.

[2] = optimized delivery system, constant rate over extended time periods
[3] = relative to morphine; background statement; cited from earlier work
[4] = cited from earlier work
[5] = on over dosage; cited from earlier work
[6] = In vitro release rate from the reservoir-type system into an infinite sink; details: Example 1 reservoir-type system
[7] = Table 4, saturated in 48 wt. % sucrose cocoate aqueous solution
[8] = Table 4, saturated in 100 wt. % methyl laurate
[9] = Table 4, saturated in methyl laurate : 48 wt. % sucrose cocoate aqueous solution 3:7
[10] = Example 1 reservoir-type system, 35° C.

## O=C(O)Cc1ccccc1Nc1c(Cl)cccc1Cl [Dichlofenac Sodium]
[1]
  Flux, Solution A: 14 μg/cm^2 /day
  Flux, Solution A:B(3:7): 215 μg/cm^2 /day
  Flux, Solution B: 146 μg/cm^2 /day

## C[C@]12CC[C@@H]3c4ccc(O)cc4CC[C@H]3[C@@H]1CC[C@@H]2O [Estradiol]
[1]; [7]
  Flux, Solution B: 7.4 μg/cm^2 /day
[1]; [8]
  Flux, Solution A: 4.3 μg/cm^2 /day

## CC(C)Cc1ccc(C(C)C(=O)O)cc1 (stereo not drawn) [Ibuprofen]
[1]; [7]
  Flux, Solution B: 547 μg/cm^2 /day
[1]; [8]
  Flux, Solution A: 586 μg/cm^2 /day
[1]; [9]
  Flux, Solution A:B(3:7): 1897 μg/cm^2 /day

## COC(=O)C1=C(C)NC(C)=C(C(=O)OC)C1c1ccccc1[N+](=O)[O-] [Nifedipine]
[1]; [7]
  Flux, Solution B: 14 μg/cm^2 /day
[1]; [8]
  Flux, Solution A: 15 μg/cm^2 /day
[1]; [9]
  Flux, Solution A:B(3:7): 23 μg/cm^2 /day

## C[C@]12C=CC(=O)C=C1CC[C@@H]1[C@@H]2[C@@H](O)C[C@@]2(C)[C@H]1CC[C@]2(O)C(=O)CO [Prednisolone]
[1]; [7]
  Flux, Solution B: 8 μg/cm^2 /day
[1]; [8]
  Flux, Solution A: 51 μg/cm^2 /day
[1]; [9]
  Flux, Solution A:B(3:7): 188 μg/cm^2 /day

## CO[C@]12CC[C@@]3(C[C@@H]1[C@](C)(O)C(C)(C)C)[C@H]1Cc4ccc(O)c5c4[C@@]3(CCN1CC1CC1)[C@H]2O5 [buprenorphine HCl]
[1]; Table 3, saturated in 48 wt. % sucrose cocoate aqueous solution, 35° C.
  skin flux, Solution B: 100 μg/cm^2 /day
[1]; Table 3, saturated in 100 wt. % methyl laurate, 35° C.
  skin flux, Solution A: 8 μg/cm^2 /day
[1]; Table 3, saturated in methyl laurate : 48 wt. % sucrose cocoate aqueous solution 1:9, 35° C.
  skin flux, Solution A:B(1:9): 226 μg/cm^2 /day
Example 1 reservoir-type system, during the 72 hour period
  amount delivered: 360 μg/cm^2
Example 1 reservoir-type system, over 72 hours, initial load about 1800 μg/cm^2
  loaded amount transdermally delivered: about 20 wt. %

## CO[C@]12CC[C@@]3(C[C@@H]1[C@](C)(O)C(C)(C)C)[C@H]1Cc4ccc(O)c5c4[C@@]3(CCN1CC1CC1)[C@H]2O5 [buprenorphine]
Example 1 reservoir-type system, 3 wt. % buprenorphine HCl, 35° C.
  steady state buprenorphine flux: about 5 μg/cm^2 /hr.
[10]
  period over which flux stayed at a constant rate: 72 h
  time to steady state flux: an hour
Example 3 laminated matrix-type system
  period over which steady state flux remained substantially constant: 72 h
Example 3 laminated matrix-type system, 5.5 wt. % buprenorphine HCl
  steady state buprenorphine flux: about 3.5 μg/cm^2 /hr.
Dual permeation enhancer sucrose cocoate + methyl laurate, full range
  in vitro human cadaver skin delivery rate: 1-10 μg/cm^2 /hr.
Dual permeation enhancer sucrose cocoate + methyl laurate, preferably
  in vitro human cadaver skin delivery rate, preferable range: 2-6 μg/cm^2 /hr.
[2]
  skin irritation: without uncomfortable skin irritation
[3]
  analgesic activity, times more potent than morphine: ~30 times
[4]; background statement
  liver and intestinal metabolism: extensive liver and intestinal metabolism
[4]; due to extensive liver and intestinal metabolism
  bioavailability: poor bioavailability
[5]
  side effects: severe side effects, particularly respiratory depression
[6]; infinite sink
  release through the microporous membrane: rapid release
[6]; within the first 12 hours
  loaded amount depleted by release into an infinite sink: more than 70 wt. %
